Tests used:
[1] = tested on: human prostate cancer cells (PC3); assay: Assessment of cytotoxicity by SRB assay, PC3 cells; format: cell-based; details: 0.01 μM to 100 μM, 72 h
Method: (§1) The human prostate cancer cells (PC3) and human osteosarcoma cells (MG-63) were obtained from Nawah Scientific Inc. (Mokatam, Cairo, Egypt) and cultured in DMEM (Dulbecco's modified eagle's medium), Gibco, USA, supplemented with fetal bovine serum […] at a concentration of 10% and 100 U/mL of penicillin and streptomycin (PS). The Cells were incubated at 37° C. in a humidified environment that contained 5% CO2.
(§2) Cells were seeded in 96-well plates as aliquots of 100 μL cell suspension and incubated in a complete media for 24 h. Afterward, cells were treated with 1,3-benzothiazol-2-yl-N′-[(3-phenylprop-2-enoyl)oxy]ethanimidamide at diverse concentrations ranging from 0.01 μM to 100 μM for 72 h. Then, cells were fixed at 4° C. for one hour with 150 μL of 10% trichloroacetic acid (TCA). […] Then, 150 μL of Tris pH 10.5 (10 mM) was added, and the absorbance was measured at 540 nm using a BMG LABTECH®—FLUOstar Omega microplate reader (Ortenberg, Germany). Half maximal inhibitory concentrations (IC50) values were calculated for each experiment using GraphPad Prism 6 software. […] The inhibition was calculated using the following equation: Inhibition %=100−Average Viability
(§3) The anticancer activity of 1,3-benzothiazol-2-yl-N′-[(3-phenylprop-2-enoyl)oxy]ethanimidamide was assessed against highly aggressive androgen-independent metastatic human prostate cancer cells (PC3) and osteosarcoma (MG-63) cells.

[2] = tested on: human osteosarcoma cells (MG-63); assay: Assessment of cytotoxicity by SRB assay, MG-63 cells; format: cell-based; details: 0.01 μM to 100 μM, 72 h
Method: as §1, §2, §3

## N/C(Cc1nc2ccccc2s1)=N\OC(=O)/C=C/c1ccccc1 [1,3-benzothiazol-2-yl-N′-[(3-phenylprop-2-enoyl)oxy]ethanimidamide]
[1]
  antiproliferative activity against prostate cancer cells (PC3): excellent antiproliferative activities
[2]
  antiproliferative activity against osteosarcoma (MG-63) cells: excellent antiproliferative activities
other
  melting point: 157 to 159 °C

— patent US11912677B1, “1,3-benzothiazol-2-yl-N'-[(3-phenylprop-2-enoyl)oxy]ethanimidamide as an anticancer and antimicrobial compound” (KING FAISAL UNIVERSITY, priority 2023, dated 2024)
